{"source": "patent US20240279220A1", "about": "“INDOLE COMPOUNDS AND METHODS OF USE” (Genzyme Corporation, priority 2021, published 2024)", "data": [{"system": "NBD1/3D", "experiment": "Aggregation analysis using differential static light scattering (DSLS), NBD1 thermal stability", "format": "binding, Human", "conditions": "ΔTagg versus DMSO control; compound at 100 μM", "in_short": "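Purified NBD1 at 0.2 mg/ml in S200 buffer (pH 7.6, 2 mM ATP, 5 mM MgCl2, 1% glycerol) was heated with compound at 1 °C/min to 70 °C. Tagg taken from the light-scattering curve inflection point; ΔTagg = compound Tagg minus mean DMSO control Tagg.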", "values": [{"compound": "Cc1c(Oc2ccc(F)c(-c3nnc(Cc4cccc(C5(F)CC(C(=O)O)C5)c4)[nH]3)c2)c(F)cc2[nH]ccc12", "note": "(stereo not shown) [Example 248, 3-Fluoro-3-(3-((5-(2-fluoro-5-((6-fluoro-4-methyl-1H-indol-5-yl)oxy)phenyl)-4H-1,2,4-triazol-3-yl)methyl)phenyl)cyclobutane-1-carboxylic acid]", "DSLS NBD1/3D Human Stability delta-T (° C.) @ 100 (μM)": "C (C: ≤5° C.)"}, {"compound": "CC(O)(c1cccc(CCC(=O)O)c1)c1c[nH]c(-c2cc(Oc3c(F)cc4[nH]ccc4c3S(C)(=N)=O)ccc2F)n1", "note": "(stereo not shown) [Example 203, 3-(3-(1-(2-(2-fluoro-5-((6-fluoro-4-(S-methylsulfonimidoyl)-1H-indol-5-yl)oxy)phenyl)-1H-imidazol-4-yl)-1-hydroxyethyl)phenyl) propanoic acid]", "DSLS NBD1/3D Human Stability delta-T (° C.) @ 100 (μM)": "A (A: T ≥ 10° C.)"}, {"compound": "CC(O)(c1cccc(/C=C2\\SC(=O)NC2=O)c1)c1cnc(-c2cccc(Oc3c(F)cc4[nH]ccc4c3F)c2)[nH]1", "note": "(stereo not shown) [Example 210, (Z)-5-(3-(1-(2-(3-((4,6-Difluoro-1H-indol-5-yl)oxy)phenyl)-1H-imidazol-5-yl)-1-hydroxyethyl)benzylidene)thiazolidine-2,4-dione]", "DSLS NBD1/3D Human Stability delta-T (° C.) @ 100 (μM)": "B (B: 5-10° C.)"}, {"compound": "CC(C)(c1cnc(-c2cc(Oc3c(F)c(F)c4[nH]ccc4c3F)ccc2F)[nH]1)c1cccc(CCC(=O)O)c1F", "note": "[Example 157, 3-(2-fluoro-3-(2-(2-(2-fluoro-5-((4,6,7-trifluoro-1H-indol-5-yl)oxy)phenyl)-1H-imidazol-5-yl)propan-2-yl)phenyl)propanoic acid]", "DSLS NBD1/3D Human Stability delta-T (° C.) @ 100 (μM)": "B (B: 5-10° C.)"}, {"compound": "O=C(O)CCc1cccc(C2(c3cnc(-c4cc(Oc5c(F)cc6[nH]ccc6c5SC(F)(F)F)ccc4F)[nH]3)CCOCC2)c1", "note": "[Example 82, 3-(3-(4-(2-(2-Fluoro-5-((6-fluoro-4-((trifluoromethyl)thio)-1H-indol-5-yl)oxy)phenyl)-1H-imidazol-5-yl)tetrahydro-2H-pyran-4-yl)phenyl)propanoic acid]", "DSLS NBD1/3D Human Stability delta-T (° C.) @ 100 (μM)": "B (B: 5-10° C.)"}, {"compound": "Cc1c(Oc2ccc(F)c(-c3ncc(Cc4cccc(CCC(=O)O)c4F)[nH]3)c2)ccc2[nH]ccc12", "note": "[Example 116, 3-(2-fluoro-3-((2-(2-fluoro-5-((4-methyl-1H-indol-5-yl)oxy)phenyl)-1H-imidazol-5-yl)methyl)phenyl)propanoic acid]", "DSLS NBD1/3D Human Stability delta-T (° C.) @ 100 (μM)": "B (B: 5-10° C.)"}, {"compound": "COP(=O)(O)Cc1cccc(Cn2ccc(-c3cccc(Oc4ccc5[nH]ccc5c4CO)c3)n2)c1", "note": "[Example 13, methyl hydrogen (3-((3-(3-((4-(hydroxymethyl)-1H-indol-5-yl)oxy)phenyl)-1H-pyrazol-1-yl)methyl)benzyl)phosphonate]", "DSLS NBD1/3D Human Stability delta-T (° C.) @ 100 (μM)": "B (B: 5-10° C.)"}, {"compound": "Cc1c(Oc2ccc(F)c(-c3nnc(Cc4cccc(C5CC(C(=O)O)C5)c4)[nH]3)c2)c(F)cc2[nH]ccc12", "note": "(stereo not shown) [Example 247, 3-(3-((5-(2-Fluoro-5-((6-fluoro-4-methyl-1H-indol-5-yl)oxy)phenyl)-4H-1,2,4-triazol-3-yl)methyl)phenyl)cyclobutane-1-carboxylic acid]", "DSLS NBD1/3D Human Stability delta-T (° C.) @ 100 (μM)": "B (B: 5-10° C.)"}, {"compound": "CC(Cc1cccc(C(C)c2cnc(-c3cc(Oc4c(F)cc5[nH]ccc5c4F)ccc3F)[nH]2)c1F)C(=O)O", "note": "(single isomer, unassigned) [Example 137A, 3-(3-(1-(2-(5-((4,6-difluoro-1H-indol-5-yl)oxy)-2-fluorophenyl)-1H-imidazol-5-yl)ethyl)-2-fluorophenyl)-2-methylpropanoic acid]", "DSLS NBD1/3D Human Stability delta-T (° C.) @ 100 (μM)": "B (B: 5-10° C.)"}, {"compound": "COC(=O)CCc1cccc(Cc2c[nH]c(-c3cc(Oc4c(F)cc5[nH]ccc5c4F)ccc3F)n2)c1", "note": "[Example 101, methyl 3-(3-((2-(5-((4,6-difluoro-1H-indol-5-yl)oxy)-2-fluorophenyl)-1H-imidazol-4-yl)methyl)phenyl)propanoate]", "DSLS NBD1/3D Human Stability delta-T (° C.) @ 100 (μM)": "C (C: ≤5° C.)"}, {"compound": "CC(c1cccc(CCC(=O)O)c1)n1ccc(-c2cc(Oc3c(F)cc4[nH]ccc4c3S(C)(=O)=O)ccc2F)n1", "note": "(stereo not shown) [Example 38, 3-(3-(1-(3-(2-Fluoro-5-((6-fluoro-4-(methylsulfonyl)-1H-indol-5-yl)oxy)phenyl)-1H-pyrazol-1-yl)ethyl)phenyl)propanoic acid]", "DSLS NBD1/3D Human Stability delta-T (° C.) @ 100 (μM)": "B (B: 5-10° C.)"}, {"compound": "Cc1c(Oc2ccc(F)c(-c3ncc(C4(c5cccc(CCC(=O)O)c5)CCOC(C)C4)[nH]3)c2)c(F)cc2[nH]ccc12", "note": "(single isomer, unassigned) [Example 151, 3-(3-(4-(2-(2-fluoro-5-((6-fluoro-4-methyl-1H-indol-5-yl)oxy)phenyl)-1H-imidazol-5-yl)-2-methyltetrahydro-2H-pyran-4-yl)phenyl)propanoic acid]", "DSLS NBD1/3D Human Stability delta-T (° C.) @ 100 (μM)": "B (B: 5-10° C.)"}, {"compound": "Cc1c(Oc2ccc(F)c(-c3ncc(C(C)c4cccc([C@@H]5CC5C(=O)O)c4F)[nH]3)c2)c(F)cc2[nH]ccc12", "note": "(single isomer, unassigned) [Example 138B, cis-2-(2-fluoro-3-(1-(2-(2-fluoro-5-((6-fluoro-4-methyl-1H-indol-5-yl)oxy)phenyl)-1H-imidazol-5-yl)ethyl)phenyl)cyclopropane-1-carboxylic acid]", "DSLS NBD1/3D Human Stability delta-T (° C.) @ 100 (μM)": "C (C: ≤5° C.)"}, {"compound": "Cc1c(Oc2ccc(F)c(-c3nnc(C(C)(O)c4cccc(CCC(=O)O)c4)[nH]3)c2)c(F)cc2[nH]ccc12", "note": "(stereo not shown) [Example 251, 3-(3-(1-(5-(2-fluoro-5-((6-fluoro-4-methyl-1H-indol-5-yl)oxy)phenyl)-4H-1,2,4-triazol-3-yl)-1-hydroxyethyl)phenyl)propanoic acid]", "DSLS NBD1/3D Human Stability delta-T (° C.) @ 100 (μM)": "B (B: 5-10° C.)"}, {"compound": "CC(c1cnc(-c2cc(Oc3c(F)cc4[nH]ccc4c3CP(C)(C)=O)ccc2F)[nH]1)c1cccc(CCC(=O)O)c1F", "note": "(single isomer, unassigned) [Example 133A, 3-(3-(1-(2-(5-((4-((dimethylphosphoryl)methyl)-6-fluoro-1H-indol-5-yl)oxy)-2-fluorophenyl)-1H-imidazol-5-yl)ethyl)-2-fluorophenyl)propanoic acid]", "DSLS NBD1/3D Human Stability delta-T (° C.) @ 100 (μM)": "C (C: ≤5° C.)"}, {"compound": "CC(O)(c1cccc(CCC(N)=O)c1)c1cnc(-c2cc(Oc3c(F)cc4[nH]ccc4c3S(C)(=O)=O)ccc2F)[nH]1", "note": "(stereo not shown) [Example 30, 3-(3-(1-(2-(2-Fluoro-5-((6-fluoro-4-(methylsulfonyl)-1H-indol-5-yl)oxy)phenyl)-1H-imidazol-5-yl)-1-hydroxyethyl)phenyl)propanamide]", "DSLS NBD1/3D Human Stability delta-T (° C.) @ 100 (μM)": "B (B: 5-10° C.)"}, {"compound": "Cc1c(Oc2ccc(F)c(-c3nc(Cc4cccc(CCC(=O)O)c4)n(C)n3)c2)c(F)cc2[nH]ccc12", "note": "[Example 241, 3-(3-((3-(2-Fluoro-5-((6-fluoro-4-methyl-1H-indol-5-yl)oxy)phenyl)-1-methyl-1H-1,2,4-triazol-5-yl)methyl)phenyl)propanoic acid]", "DSLS NBD1/3D Human Stability delta-T (° C.) @ 100 (μM)": "B (B: 5-10° C.)"}, {"compound": "Cc1c(Oc2ccc(F)c(-c3ncc(C(C)(C#N)c4cccc(CCC(=O)O)c4)[nH]3)c2)c(F)cc2[nH]ccc12", "note": "(stereo not shown) [Example 50, 3-(3-(1-cyano-1-(2-(2-fluoro-5-((6-fluoro-4-methyl-1H-indol-5-yl)oxy)phenyl)-1H-imidazol-5-yl)ethyl)phenyl)propanoic acid]", "DSLS NBD1/3D Human Stability delta-T (° C.) @ 100 (μM)": "B (B: 5-10° C.)"}, {"compound": "N#Cc1c(CCC(=O)O)cccc1Cc1cnc(-c2cc(Oc3c(F)cc4[nH]ccc4c3F)ccc2F)[nH]1", "note": "[Example 122, 3-(2-cyano-3-((2-(5-((4,6-difluoro-1H-indol-5-yl)oxy)-2-fluorophenyl)-1H-imidazol-5-yl)methyl)phenyl)propanoic acid]", "DSLS NBD1/3D Human Stability delta-T (° C.) @ 100 (μM)": "B (B: 5-10° C.)"}, {"compound": "C=C(c1cccc(CCC(=O)O)c1)c1cnc(-c2cc(Oc3c(F)cc4[nH]ccc4c3C)ccc2F)[nH]1", "note": "[Example 214, 3-(3-(1-(2-(2-Fluoro-5-((6-fluoro-4-methyl-1H-indol-5-yl)oxy)phenyl)-1H-imidazol-5-yl)vinyl)phenyl)propanoic acid]", "DSLS NBD1/3D Human Stability delta-T (° C.) @ 100 (μM)": "C (C: ≤5° C.)"}, {"compound": "Cc1nc(-c2cc(Oc3c(F)cc4[nH]ccc4c3F)ccc2F)[nH]c1C(O)c1cccc(CCC(=O)O)c1F", "note": "(single isomer, unassigned) [Example 179, 3-(3-((2-(5-((4,6-difluoro-1H-indol-5-yl)oxy)-2-fluorophenyl)-4-methyl-1H-imidazol-5-yl)(hydroxy)methyl)-2-fluorophenyl)propanoic acid]", "DSLS NBD1/3D Human Stability delta-T (° C.) @ 100 (μM)": "B (B: 5-10° C.)"}, {"compound": "CC(C#N)(c1cccc(CCC(=O)O)c1)c1cnc(-c2cc(Oc3c(F)cc4[nH]cnc4c3F)ccc2F)[nH]1", "note": "(stereo not shown) [Example 62, 3-(3-(1-cyano-1-(2-(5-((4,6-difluoro-1H-benzo[d]imidazol-5-yl)oxy)-2-fluorophenyl)-1H-imidazol-5-yl)ethyl)phenyl)propanoic acid]", "DSLS NBD1/3D Human Stability delta-T (° C.) @ 100 (μM)": "B (B: 5-10° C.)"}, {"compound": "Cc1c(Oc2ccc(F)c(-c3nc(C(C)(O)c4cc(Cl)cc(CCC(=O)O)c4)c[nH]3)c2)c(F)cc2[nH]ccc12", "note": "(stereo not shown) [Example 189, 3-(3-chloro-5-(1-(2-(2-fluoro-5-((6-fluoro-4-methyl-1H-indol-5-yl)oxy)phenyl)-1H-imidazol-4-yl)-1-hydroxyethyl)phenyl) propanoic acid]", "DSLS NBD1/3D Human Stability delta-T (° C.) @ 100 (μM)": "B (B: 5-10° C.)"}, {"compound": "CS(=O)(=O)c1c(Oc2ccc(F)c(-c3ncc(C4(c5cccc(CCC(=O)O)c5)CCC4)[nH]3)c2)c(F)cc2[nH]ccc12", "note": "[Example 46, 3-(3-(1-(2-(2-fluoro-5-((6-fluoro-4-(methylsulfonyl)-1H-indol-5-yl)oxy)phenyl)-1H-imidazol-5-yl)cyclobutyl)phenyl)propanoic acid]", "DSLS NBD1/3D Human Stability delta-T (° C.) @ 100 (μM)": "A (A: T ≥ 10° C.)"}, {"compound": "Cc1c(Oc2cccc(-c3ccn(C(C)c4cccc(CC(=O)O)c4)n3)c2)ccc2[nH]ccc12", "note": "(stereo not shown) [Example 4, 2-(3-(1-(3-(3-((4-methyl-1H-indol-5-yl)oxy)phenyl)-1H-pyrazol-1-yl)ethyl)phenyl)acetic acid]", "DSLS NBD1/3D Human Stability delta-T (° C.) @ 100 (μM)": "B (B: 5-10° C.)"}]}]}
